ChEMBL document CHEMBL5030568, “Design and Evaluation of Bispidine-Based SARS-CoV-2 Main Protease Inhibitors” (ACS Med Chem Lett, 2022)

Key:
[1] = Inhibition of SARS coronavirus 2 3 main viral protease 3-chymotrypsin-like activity expressed in Escherichia coli using Dabcyl-VNSTLQSGLRK(FAM)MA as substrate measured by fluorescence intensity assay; set-up: species or system Severe acute respiratory syndrome coronavirus 2
[2] = tested on: HEK-293T; assay: Cytotoxicity against human HEK293T cells assessed as reduction in cell viability; type: cell-based

SMILES	IC50 [1] [µM]	IC50 [2] [µM]
CC12CN(Cc3ccccc3)CC(C)(CN(Cc3ccccc3)C1)C2=O	0.9	359
CC(=O)N1CC2(C)CN(C(C)=O)CC(C)(C1)C2=O	18.5	> 1000
CC12CN(CC#N)CC(C)(CN(CC#N)C1)C2=O	5.5	> 700
CC12CN(C(=O)OC(C)(C)C)CC(C)(CN(C(=O)OC(C)(C)C)C1)C2	17.9	302
CC12CNCC(C)(CNC1)C2=O	2.6	> 1000
C=CC(=O)N1CC2(C)CN(C(=O)C=C)CC(C)(C1)C2	99.6	> 1000
C#CC(=O)N1CC2(C)CN(C(=O)C#C)CC(C)(C1)C2=O	5.5	57.3
CCOC(=O)c1cc(-n2cc(CN3CC4(C)CN(Cc5cn(-c6cc(C(=O)OCC)n[nH]6)nn5)CC(C)(C3)C4=O)nn2)[nH]n1	13.6	–
Cn1nc(C(=O)N2CC3(C)CN(C(=O)c4nn(C)c5c4Cc4ccccc4-5)CC(C)(C2)C3=O)c2c1-c1ccccc1C2	13	> 800
CC(C)(C)OC(=O)Cn1cc(CN2CC3(C)CN(Cc4cn(CC(=O)OC(C)(C)C)nn4)CC(C)(C2)C3=O)nn1	2.02	465
CC12CN(Cc3cn(Cc4ccccc4)nn3)CC(C)(CN(Cc3cn(Cc4ccccc4)nn3)C1)C2=O	2.2	560
CC12CN(CCN(CC(=O)O)CC(=O)O)CC(C)(CN(CCN(C(=O)O)C(=O)O)C1)C2=O	33.7	257
CC12CN(C(=O)c3cc(-c4ccccc4)n(-c4ccccc4)n3)CC(C)(CN(C(=O)c3cc(-c4ccccc4)n(-c4ccccc4)n3)C1)C2=O	1.4	> 700
CC12CN(C(=O)c3ccccc3)CC(C)(CN(C(=O)c3ccccc3)C1)C2=O	3.3	692
CC(C)(C)OC(=O)NCCn1cc(CN2CC3(C)CN(Cc4cn(CCNC(=O)OC(C)(C)C)nn4)CC(C)(C2)C3=O)nn1	0.83	410
Cc1cc(CN2CC3(C)CN(Cc4cc(C)no4)CC(C)(C2)C3=O)on1	5.2	> 700
C#CCN1CC2(C)CN(CC#C)CC(C)(C1)C2=O	8.8	> 1000
CC12CN(C(=O)/C=C/c3ccccc3)CC(C)(CN(C(=O)/C=C/c3ccccc3)C1)C2=O	4.8	> 1000
Cn1nc(C(=O)N2CC3(C)CN(C(=O)c4nn(C)c5c4CCc4ccccc4-5)CC(C)(C2)C3=O)c2c1-c1ccccc1CC2	0.75	> 800
CC12CN(CC(=O)O)CC(C)(CN(CC(=O)O)C1)C2=O	7.1	> 1000
CC12CN(C(=O)/C=C/c3ccccc3)CC(C)(CN(C(=O)/C=C/c3ccccc3)C1)C2	46.6	253
CC(C)(C)OC(=O)N1CC2(C)CN(C(=O)OC(C)(C)C)CC(C)(C1)C2=O	5.9	> 1000
Cn1nc(C(=O)N2CC3(C)CN(C(=O)c4cc(-c5cccs5)n(C)n4)CC(C)(C2)C3=O)cc1-c1cccs1	4.99	456
CCOC(=O)c1n[nH]cc1-n1cc(CN2CC3(C)CN(Cc4cn(-c5c[nH]nc5C(=O)OCC)nn4)CC(C)(C2)C3=O)nn1	16.3	> 700
Cn1nc(C(=O)N2CC3(C)CN(C(=O)c4cc(-c5ccccc5)n(C)n4)CC(C)(C2)C3=O)cc1-c1ccccc1	1.45	> 900
CC(C)Cc1ccc(C(C)C(=O)O)cc1 (stereo not given) [IBUPROFEN]	> 500	–
